Experimental data: US20050065118A1, “Organosulfur inhibitors of tyrosine phosphatases” (priority 2001, published 2005)
Values joined by “and” are separate entries in the source; they are usually repeats but may differ in a detail not shown here. Identical values can stand only once.

Key:
PTP-1B = biological target: T1, PTP-1B (Homo sapiens, UniProt P18031); test: PTP-1B inhibition, Malachite Green assay with pIRP substrate; assay type: biochemical
T1 sequence (P18031 1-435): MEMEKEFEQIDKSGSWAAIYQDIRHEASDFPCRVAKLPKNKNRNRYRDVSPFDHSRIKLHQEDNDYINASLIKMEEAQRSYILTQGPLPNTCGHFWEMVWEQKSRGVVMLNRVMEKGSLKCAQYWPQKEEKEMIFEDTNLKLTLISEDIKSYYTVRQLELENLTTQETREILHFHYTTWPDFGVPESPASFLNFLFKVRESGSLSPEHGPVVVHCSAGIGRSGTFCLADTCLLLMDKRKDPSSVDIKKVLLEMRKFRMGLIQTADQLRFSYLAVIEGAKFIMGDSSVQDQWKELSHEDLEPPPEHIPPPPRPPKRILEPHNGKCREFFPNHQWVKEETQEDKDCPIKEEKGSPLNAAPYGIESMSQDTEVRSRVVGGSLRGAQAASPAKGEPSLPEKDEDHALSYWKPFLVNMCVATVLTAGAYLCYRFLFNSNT
Description: The compounds of the present invention are evaluated for biological activity as inhibitors of PTP-1B using, for example, a Malachite Green assay with pIRP as a substrate. The pIRP substrate includes a phosphotyrosine residue, and PTP-1B cleaves the phosphate group from the tyrosine, yielding the peptide and phosphate. The rate of the enzymatic reaction is determined by measuring the phosphate released during the reaction.
The reactants for the assay include 20 mM Tris-HCl, pH 7.4, 2 mM EDTA (ethylaminediamine tetraacetic acid) and 2 mM DTT (dithiothreitol) as the assay buffer, and 1 mM pIRP in assay buffer (1 mg in 0.59 mL buffer) as the substrate stock. The Malachite Green solution is prepared by adding 30 μL of 1% Tween 20 to 1 mL of Malachite Green Solution A. The stock of each compound to be tested is made up as 10 mM in DMSO (dimethylsulfoxide).
The compound to be tested is prepared as 1:5, 1:15.8, 1:50 and 1:158 dilutions from stock in a total volume of […]. The reaction mixtures are prepared in a 96-well microtiter plate as 27.5 μL assay buffer, […] of the diluted compound (to a final concentration of 100, 32, 10 and 3.2 μM), 10 μL of the pIRP substrate solution (to a final concentration of 200 μM) and 10 μL PTPase in assay buffer. The reactants are mixed well, the plate placed in a water bath at 30° C. and incubated for 3 minutes. The reaction is then terminated by adding 100 μL of Malachite Green solution per well, color is allowed to develop for 15 minutes, and the A650 is measured by conventional means.
Unless otherwise indicated, this assay was used to determine activity for the selected compounds whose activity is recorded in the Table.

TC-PTP = biological target: T2, TC-PTP (Homo sapiens, UniProt P17706); test: TC-PTP inhibition, pNPP tyrosine phosphatase assay; assay type: biochemical; details: two values in a cell = two determinations
T2 construct: purchased NEB
T2 sequence (P17706 1-317 limits assumed): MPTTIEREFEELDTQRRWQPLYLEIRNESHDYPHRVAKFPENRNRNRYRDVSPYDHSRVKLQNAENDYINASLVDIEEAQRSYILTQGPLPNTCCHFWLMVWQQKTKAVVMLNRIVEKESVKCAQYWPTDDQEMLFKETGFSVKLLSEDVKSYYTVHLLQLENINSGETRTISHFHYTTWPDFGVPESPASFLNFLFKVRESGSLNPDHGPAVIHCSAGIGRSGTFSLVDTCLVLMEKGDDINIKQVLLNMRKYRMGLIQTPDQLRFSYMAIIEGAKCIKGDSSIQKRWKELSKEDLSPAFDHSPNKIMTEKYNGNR
Description: (§1) Alternatively, a pNPP assay can be used to screen compounds for tyrosine phosphatase inhibitory activity as follows: A 5× stock of pNPP (p-nitrophenol phosphate) substrate is prepared as 50 mM pNPP in assay buffer prepared as described above. Various tyrosine phosphatase solutions can be prepared as follows: • PTP-1B (SBI purified, 1 mg/mL) as a 1:250 dilution (to a final concentration of 4 μg/mL); • TC-PTP (NEB, 1000 units in 100 μL) as a 1:50 dilution (to a final concentration of 2U/10 μL (4 μg/mL)); • CD45 (Calbiochem, 20 μg, 400 units in 100 μL) as a 1:50 dilution (to a final concentration of 0.8U/10 μL (4 μg/mL)); • LAR (NEB, 1000 units in 200 μL) as a 1:75 dilution (to a final concentration of 0.7U/10 μL (4 μg/mL)); and • PTP-β (UBI, #14-350, 10,000 units, 40 μg/571 μL) as a 1:17.5 dilution (to a final concentration of 10U/10 μL (4 μg/mL));
(§2) The compound to be tested is prepared as 1:16.7 and 1:50 dilutions from stock in a total volume of […] to give final concentrations of 626 and 200 μM. The reaction mixtures are prepared in a 96-well microtiter plate (on ice) as 55 μL assay buffer, 5 μL of the diluted compound (to a final concentration of 31.3 and 10 μM), 20 μL of the pNPP substrate solution (to a final concentration of 10 mM) and 20 μL PTease in assay buffer. The reactants are mixed well, the plate placed in a water bath at 30° C. and incubated for 10 minutes. The reaction is then terminated by adding 100 μL of 2M K2CO3 per well, and the absorbance is measured at 405 nm by conventional means.

PTP-β = biological target: T3, PTP-β (Homo sapiens, UniProt P23467); test: PTP-β inhibition, pNPP tyrosine phosphatase assay; assay type: biochemical
T3 construct: purchased UBI #14-350
T3 sequence (P23467 1643-1997 limits assumed): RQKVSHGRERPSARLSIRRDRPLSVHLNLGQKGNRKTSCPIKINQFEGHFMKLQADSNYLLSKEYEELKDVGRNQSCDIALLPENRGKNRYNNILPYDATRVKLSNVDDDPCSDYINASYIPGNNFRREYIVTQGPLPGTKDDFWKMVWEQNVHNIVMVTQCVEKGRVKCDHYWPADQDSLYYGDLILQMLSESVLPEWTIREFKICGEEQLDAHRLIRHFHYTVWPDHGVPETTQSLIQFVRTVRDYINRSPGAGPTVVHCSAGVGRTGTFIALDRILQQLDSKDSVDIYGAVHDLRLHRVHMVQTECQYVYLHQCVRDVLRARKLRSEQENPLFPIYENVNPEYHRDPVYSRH
Description: as §1, §2

CD-45 = biological target: T4, CD-45 (Homo sapiens, UniProt P08575); test: CD45 inhibition, pNPP tyrosine phosphatase assay; assay type: biochemical
T4 construct: purchased Calbiochem
T4 sequence (P08575 609-1306 limits assumed): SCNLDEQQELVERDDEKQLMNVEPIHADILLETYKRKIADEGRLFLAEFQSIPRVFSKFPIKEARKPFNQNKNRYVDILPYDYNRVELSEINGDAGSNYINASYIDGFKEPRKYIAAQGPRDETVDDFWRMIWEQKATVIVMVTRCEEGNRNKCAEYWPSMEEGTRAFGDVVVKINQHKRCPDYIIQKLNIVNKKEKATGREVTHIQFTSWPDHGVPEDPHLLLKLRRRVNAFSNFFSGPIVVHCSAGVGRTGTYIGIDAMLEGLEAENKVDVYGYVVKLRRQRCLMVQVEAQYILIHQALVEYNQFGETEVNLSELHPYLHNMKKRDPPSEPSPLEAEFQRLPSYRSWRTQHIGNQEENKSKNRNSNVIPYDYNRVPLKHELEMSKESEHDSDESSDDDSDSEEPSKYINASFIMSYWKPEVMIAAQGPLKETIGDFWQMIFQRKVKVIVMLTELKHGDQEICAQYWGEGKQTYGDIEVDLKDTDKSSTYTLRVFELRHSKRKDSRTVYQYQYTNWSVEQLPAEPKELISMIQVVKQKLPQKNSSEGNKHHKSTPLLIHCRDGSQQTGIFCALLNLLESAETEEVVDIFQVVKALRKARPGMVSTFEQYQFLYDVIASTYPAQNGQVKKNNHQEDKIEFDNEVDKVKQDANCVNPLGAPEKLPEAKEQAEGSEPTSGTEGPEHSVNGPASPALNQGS
Description: as §1, §2

| Structure (SMILES) | IC50 (PTP-1B) [µM] | IC50 (TC-PTP) | IC50 (PTP-β) [µM] | IC50 (CD-45) [µM] | melting point [°C] |
| --- | --- | --- | --- | --- | --- |
| O=[N+]([O-])c1cccc(-c2nnc(Nc3cccc(Br)c3)s2)c1 [Example 80, (3-bromophenyl)[5-(3-nitrophenyl)(1,3,4-thiadiazol-2-yl)]amine] | 7 | 14 µM and 8 µM | > 100 | 80 |  |
| Clc1cc(Nc2nnc(-c3cccc(Oc4ccccc4)c3)s2)ccc1Br [Example 135] | 6 | 20 µM and 12 µM | > 100 | 20 |  |
| Clc1ccc(Nc2nnc(-c3cccc(Oc4cccc(-c5nnn[nH]5)c4)c3)s2)cc1Cl [Example 14, {5-[3-(3-(1H-1,2,3,4-tetraazol-5-yl)phenoxy)phenyl](1,3,4-thiadiazol-2-yl)}(3,4-dichlorophenyl)amine] | 5 | 12 µM | 24 | 10 |  |
| O=C(O)c1ccc(Cn2nc(-c3cccc(Oc4cccc(C(F)(F)F)c4)c3)sc2=Nc2ccc(Cl)c(Cl)c2)cc1 [Compound 187, 4-{2-(3,4-Dichloro-phenylimino)-5-[3{3-trifluoromethyl-phenoxy)-phenyl]-[1,3,4]thiadiaziol-3-ylmethyl}-benzoic acid] | 1 | 1 µM | 5 | 5 |  |
| O=C(O)c1cccc(Oc2cccc(-c3nnc(Nc4ccc(Cl)c(Cl)c4)s3)c2)c1 [Example 7, (3-(3-{5[(3,4-dichlorophenyl)amino]-1,3,4-thiadiazol-2-yl}phenoxy)benzoic acid)] | 12 | 15 µM | 31 | 17 | 258 to 259 |
| O=C(O)c1ccc(N/N=C/c2cccc(Oc3cccc(-c4nnc(Nc5ccc(Cl)c(Cl)c5)s4)c3)c2)cc1 [Example 172] | 0.8 | 1.6 µM | 30 | 14 | 259 to 262 |
| CCOc1cccc(-c2nnc(Nc3ccc(Br)c(Cl)c3)s2)c1 [Example 66, (4-bromo-3-chlorophenyl)[5-(3-ethoxyphenyl)(1,3,4-thiadiazol-2-yl)]amine] | 7 | 20 µM | > 100 | 25 | 204 to 205 |
